{
  "source": "BindingDB's records for doi:10.1021/jm500759v",
  "about": "(Griffith University, 2014)",
  "data": [
    {"assay": "Inhibition of neuraminidase activity of human parainfluenza virus 1 C35 hemagglutinin-neuraminidase pre-incubated for 20 mins before MUN substrate by methylumbelliferone release based fluorescence assay", "units": {"IC50": "µM"}, "values": [
      {"smiles": "CC(=O)N[C@H]1[C@H]([C@H](O)[C@H](O)CO)OC(C(=O)O)=C[C@@H]1N", "IC50": "> 1000"},
      {"smiles": "CC(C)C(=O)N[C@H]1[C@H]([C@H](O)[C@H](O)CO)OC(C(=O)O)=C[C@@H]1O", "IC50": 3.82},
      {"smiles": "CC(C)C(=O)N[C@H]1[C@H]([C@H](O)[C@H](O)CO)OC(C(=O)O)=C[C@@H]1N=[N+]=[N-]", "IC50": 0.5},
      {"smiles": "CC(CO)C(=O)N[C@H]1[C@H]([C@H](O)[C@H](O)CO)OC(C(=O)O)=C[C@@H]1N=[N+]=[N-]", "note": "(stereo partly drawn)", "IC50": 9.49},
      {"smiles": "C/C=C(\\C)C(=O)N[C@H]1[C@H]([C@H](O)[C@H](O)CO)OC(C(=O)O)=C[C@@H]1N=[N+]=[N-]", "IC50": 7.76},
      {"smiles": "CCC(C)C(=O)N[C@H]1[C@H]([C@H](O)[C@H](O)CO)OC(C(=O)O)=C[C@@H]1N=[N+]=[N-]", "note": "(stereo partly drawn)", "IC50": 1.58},
      {"smiles": "[N-]=[N+]=N[C@H]1C=C(C(=O)O)O[C@@H]([C@H](O)[C@H](O)CO)[C@@H]1NC(=O)C1CCC1", "IC50": 1.92},
      {"smiles": "[N-]=[N+]=N[C@H]1C=C(C(=O)O)O[C@@H]([C@H](O)[C@H](O)CO)[C@@H]1NC(=O)C1CC1", "IC50": 0.91},
      {"smiles": "CC(O)C(=O)N[C@H]1[C@H]([C@H](O)[C@H](O)CO)OC(C(=O)O)=C[C@@H]1N=[N+]=[N-]", "note": "(stereo partly drawn)", "IC50": 68.1},
      {"smiles": "CC(=O)N[C@H]1[C@H]([C@H](O)[C@H](O)CO)OC(C(=O)O)=C[C@@H]1O", "IC50": 63.8},
      {"smiles": "CC(C)C(=O)N[C@H]1[C@H]([C@H](O)[C@H](O)CO)OC(C(=O)O)=C[C@@H]1NC(=N)N", "IC50": "> 1000"},
      {"smiles": "CC(=O)N[C@H]1[C@H]([C@H](O)[C@H](O)CO)OC(C(=O)O)=C[C@@H]1N=[N+]=[N-]", "IC50": 3.92},
      {"smiles": "CC(C)C(=O)N[C@H]1[C@H]([C@H](O)[C@H](O)CO)OC(C(=O)O)=C[C@@H]1N", "IC50": 261}
    ]}
  ]
}
